Data from patent US10413559B2, “Method for treating demyelinating disease” (OCHANOMIZU UNIVERSITY, priority 2013, dated 2019).

What was measured:
[1] = test system: demyelination model mice (0.2% cuprizone); assay: Test of motor function impairment using rotarod; type: in vivo, C57BL/6j mice; conditions: intraperitoneal 1.6 mg/kg/day for 5 weeks, 28 rpm, 300 seconds, FIG. 9, FIG. 10
Excerpt: 10-week-old male C57BL/6j mice (Tokyo Laboratory Animals Science Co., Ltd., Tokyo, Japan) were fed by the discretionary intake of a mash feed (CLEA Japan, Inc.) that contained 0.2% cuprizone (biscyclohexanone oxalyl hydrazone; Merck KGaA, Darmstadt, Germany) for 5 weeks until demyelination progressed most, so as to produce demyelination model mice involving demyelination caused by oligodendrocyte-specific cell death. The cPA used in the experiment was the same cPA (16:0) as that used in Example 1, and the carba-cPA was 2 ccPA (16:1). The cPA and 2 ccPA were chemically purified (Biochimica et Biophysica Acta, Emi Nozaki 2011), and were then dissolved in a 0.9% saline. […] The locomotion time on the rod was evaluated by measuring the time required for the mice to fall from the rotating rod within a record time of 300 seconds. Moreover, even after the mice had fallen from the rod, they were forced to continue their activity immediately after the falling, so that a total number of the activities from falling from the rod to holding on to the rod for 300 seconds (a number of falls and flips) was measured and evaluated. The data of the test of motor function impairment were analyzed according to a non-parametric method using a Kruskal-Wallis test. All of other data were analyzed according to a one-way ANOVA method using a Newman-Keulis test. […]

[2] = test system: GFAP, Iba1, PDGFRa, P2rx7, Nlrp3 gene expression in corpus callosum; assay: Genetic analysis using Q-PCR of corpus callosum tissues; type: in vivo, C57BL/6j mice; conditions: cuprizone mice; intraperitoneal 1.6 mg/kg/day for 5 weeks; FIG. 6-8
Excerpt: 10-week-old male C57BL/6j mice (Tokyo Laboratory Animals Science Co., Ltd., Tokyo, Japan) were fed by the discretionary intake of a mash feed (CLEA Japan, Inc.) that contained 0.2% cuprizone (biscyclohexanone oxalyl hydrazone; Merck KGaA, Darmstadt, Germany) for 5 weeks until demyelination progressed most, so as to produce demyelination model mice involving demyelination caused by oligodendrocyte-specific cell death.
To obtain mouse corpus callosum tissues to be used for genetic analysis, mouse brain was removed, and the corpus callosum tissues were then collected from the brain. […]
mRNA was extracted from the frozen corpus callosum tissues using ISOGEN (Nippon Gene Co., Ltd., Tokyo, Japan), was then dissolved in RNase free molecular grade water (Takara Bio Inc., Shiga, Japan), and was then preserved at −80° C. […] Gene expression was detected using 7900 Sequence Detection System (Applied Biosystems). […] The gene expression level was calculated by a ΔΔCT method. Data were analyzed by a relative quantification method. A relative change in the gene expression was analyzed, while setting the gene expression level in a control mouse at 100%.

## CCCCCCCCCCCCCCCC(=O)OCC1COP(=O)(O)O1 (centres unmarked) [cPA]
[1]
  motor function impairment (rotarod): motor function impairment is improved
[2]
  nerve inflammation (gene expression by Q-PCR): nerve inflammation is suppressed
